Tests used:
Experiment in all cases: Test D controlled growth environment herbicide test, pre- and postemergence
Format in all cases: in vivo
[1] = system: galium (catchweed bedstraw, Galium aparine)
Summary of the method: (§1)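 Rating is visual, 0–100 scale (100 = complete control), made against untreated plants 14–21 d after treatment in controlled growth conditions. Postemergence sprays went onto 1- to 4-leaf plants in peat medium; preemergence sprays onto silt loam after sowing; formulation included a surfactant.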

[2] = system: blackgrass (Alopecurus myosuroides)
Summary of the method: as §1

[3] = system: canarygrass (Phalaris minor)
Summary of the method: as §1

[4] = system: buckwheat, wild (wild buckwheat, Polygonum convolvulus)
Summary of the method: as §1

[5] = system: pigweed (Amaranthus retroflexus)
Summary of the method: as §1

[6] = system: ryegrass, Italian (Italian ryegrass, Lolium multiflorum)
Summary of the method: as §1

[7] = system: field poppy (Papaver rhoeas)
Summary of the method: as §1

[8] = system: Russian thistle (Salsola kali)
Summary of the method: as §1

kochia (Kochia scoparia) = system: kochia (Kochia scoparia)
Summary of the method: as §1

[9] = system: chickweed (common chickweed, Stellaria media)
Summary of the method: as §1

[10] = system: wheat, winter (winter wheat, Triticum aestivum)
Summary of the method: as §1

[11] = system: bluegrass (annual bluegrass, Poa annua)
Summary of the method: as §1

[12] = system: foxtail, green (green foxtail, Setaria viridis)
Summary of the method: as §1

[13] = Postemergence, 31 g ai/ha, scale 0 to 100 (0 no effect, 100 complete control)
[14] = Postemergence, 125 g ai/ha, visual rating on scale 0 (no effect) to 100 (complete control), 14 to 21 d
[15] = Postemergence, 250 g ai/ha, scale 0 to 100 (0 no effect, 100 complete control)
[16] = Preemergence, 62 g ai/ha, scale 0 to 100 (0 no effect, 100 complete control)
[17] = Preemergence, 125 g ai/ha, scale 0 to 100 (0 no effect, 100 complete control)
[18] = Preemergence, 250 g ai/ha, scale 0 to 100 (0 no effect, 100 complete control)
[19] = postemergence, 62 g ai/ha, scale 0 to 100, 0 no effect, 100 complete control

## COc1nn(C)c(=O)c(-c2c(C)ccc3ccccc23)c1OC(=O)OC(C)C [Compound 36]
[1]; [13]
  Galium plant response rating: 100
[1]; [14]
  Plant response rating, Galium: 100
[1]; [15]
  Plant response rating, Galium: 100
[1]; Preemergence, 31 g ai/ha
  Plant response rating (scale of 0 to 100), Galium: 0
[1]; [16]
  Plant response rating, Galium: 20
[1]; [17]
  Plant response rating, Galium: 75
[1]; [18]
  Plant response rating, Galium: 85
[1]; [19]
  Plant response rating, Galium: 100
[2]; [13]
  Blackgrass plant response rating: 25
[2]; [14]
  Plant response rating, Blackgrass: 45
[2]; [15]
  Plant response rating, Blackgrass: 70
[2]; Preemergence, 31 g ai/ha
  Plant response rating (scale of 0 to 100), Blackgrass: 15
[2]; [16]
  Plant response rating, Blackgrass: 30
[2]; [17]
  Plant response rating, Blackgrass: 35
[2]; [18]
  Blackgrass plant response rating: 50
[2]; [19]
  Plant response rating, Blackgrass: 35
[3]; [13]
  Canarygrass plant response rating: 15
[3]; [14]
  Plant response rating, Canarygrass: 55
[3]; [15]
  Plant response rating, Canarygrass: 80
[3]; Preemergence, 31 g ai/ha
  Plant response rating (scale of 0 to 100), Canarygrass: 0
[3]; [16]
  Plant response rating, Canarygrass: 45
[3]; [17]
  Plant response rating, Canarygrass: 40
[3]; [18]
  Plant response rating, Canarygrass: 65
[3]; [19]
  Plant response rating, Canarygrass: 40
[4]; [13]
  Buckwheat, Wild plant response rating: 100
[4]; [14]
  Plant response rating, Buckwheat, Wild: 100
[4]; [15]
  Plant response rating, Buckwheat, Wild: 100
[4]; Preemergence, 31 g ai/ha
  Plant response rating (scale of 0 to 100), Buckwheat, Wild: 0
[4]; [16]
  Plant response rating, Buckwheat, Wild: 0
[4]; [17]
  Plant response rating, Buckwheat, Wild: 10
[4]; [18]
  Plant response rating, Buckwheat, Wild: 10
[4]; [19]
  Plant response rating, Buckwheat, Wild: 100
[5]; [13]
  Pigweed plant response rating: 100
[5]; [14]
  Plant response rating, Pigweed: 100
[5]; [15]
  Plant response rating, Pigweed: 100
[5]; Preemergence, 31 g ai/ha
  Plant response rating (scale of 0 to 100), Pigweed: 55
[5]; [16]
  Plant response rating, Pigweed: 75
[5]; [17]
  Plant response rating, Pigweed: 100
[5]; [18]
  Plant response rating, Pigweed: 100
[5]; [19]
  Plant response rating, Pigweed: 100
[6]; [13]
  Ryegrass, Italian plant response rating: 75
[6]; [14]
  Plant response rating, Ryegrass, Italian: 90
[6]; [15]
  Plant response rating, Ryegrass, Italian: 90
[6]; Preemergence, 31 g ai/ha
  Plant response rating (scale of 0 to 100), Ryegrass, Italian: 20
[6]; [16]
  Plant response rating, Ryegrass, Italian: 65
[6]; [17]
  Plant response rating, Ryegrass, Italian: 70
[6]; [18]
  Plant response rating, Ryegrass, Italian: 70
[6]; [19]
  Plant response rating, Ryegrass, Italian: 80
[7]; [13]
  Field Poppy plant response rating: 60
[7]; [14]
  Plant response rating, Field Poppy: 90
[7]; [15]
  Plant response rating, Field Poppy: 100
[7]; [16]
  Plant response rating, Field Poppy: 50
[7]; [17]
  Plant response rating, Field Poppy: 70
[7]; [18]
  Plant response rating, Field Poppy: 100
[7]; [19]
  Plant response rating, Field Poppy: 70
[8]; [13]
  Russian Thistle plant response rating: 80
[8]; [14]
  Plant response rating, Russian Thistle: 85
[8]; [15]
  Plant response rating, Russian Thistle: 90
[8]; Preemergence, 31 g ai/ha
  Plant response rating (scale of 0 to 100), Russian Thistle: 0
[8]; [16]
  Plant response rating, Russian Thistle: 15
[8]; [17]
  Plant response rating, Russian Thistle: 10
[8]; [18]
  Plant response rating, Russian Thistle: 15
[8]; [19]
  Plant response rating, Russian Thistle: 85
Kochia (Kochia scoparia); [13]
  Kochia plant response rating: 85
Kochia (Kochia scoparia); [14]
  Plant response rating, Kochia: 100
Kochia (Kochia scoparia); [15]
  Plant response rating, Kochia: 100
Kochia (Kochia scoparia); Preemergence, 31 g ai/ha
  Plant response rating (scale of 0 to 100), Kochia: 0
Kochia (Kochia scoparia); [16]
  Plant response rating, Kochia: 25
Kochia (Kochia scoparia); [17]
  Plant response rating, Kochia: 45
Kochia (Kochia scoparia); [18]
  Plant response rating, Kochia: 60
Kochia (Kochia scoparia); [19]
  Plant response rating, Kochia: 95
[9]; [13]
  Chickweed plant response rating: 100
[9]; [14]
  Plant response rating, Chickweed: 100
[9]; [15]
  Plant response rating, Chickweed: 100
[9]; Preemergence, 31 g ai/ha
  Plant response rating (scale of 0 to 100), Chickweed: 95
[9]; [16]
  Plant response rating, Chickweed: 95
[9]; [17]
  Plant response rating, Chickweed: 100
[9]; [18]
  Plant response rating, Chickweed: 100
[9]; [19]
  Plant response rating, Chickweed: 100
[10]; [13]
  Wheat, Winter plant response rating: 0
[10]; [14]
  Plant response rating, Wheat, Winter: 5
[10]; [15]
  Plant response rating, Wheat, Winter: 15
[10]; Preemergence, 31 g ai/ha
  Plant response rating (scale of 0 to 100), Wheat, Winter: 0
[10]; [16]
  Plant response rating, Wheat, Winter: 0
[10]; [17]
  Plant response rating, Wheat, Winter: 0
[10]; [18]
  Plant response rating, Wheat, Winter: 0
[10]; [19]
  Plant response rating, Wheat, Winter: 0
[11]; [13]
  Bluegrass plant response rating: 10
[11]; [14]
  Plant response rating, Bluegrass: 40
[11]; [15]
  Plant response rating, Bluegrass: 35
[11]; Preemergence, 31 g ai/ha
  Plant response rating (scale of 0 to 100), Bluegrass: 0
[11]; [16]
  Plant response rating, Bluegrass: 15
[11]; [17]
  Plant response rating, Bluegrass: 10
[11]; [18]
  Bluegrass plant response rating: 15
[11]; [19]
  Plant response rating, Bluegrass: 15
[12]; [13]
  Foxtail, Green plant response rating: 35
[12]; [14]
  Plant response rating, Foxtail, Green: 80
[12]; [15]
  Plant response rating, Foxtail, Green: 90
[12]; Preemergence, 31 g ai/ha
  Plant response rating (scale of 0 to 100), Foxtail, Green: 45
[12]; [16]
  Plant response rating, Foxtail, Green: 25
[12]; [17]
  Plant response rating, Foxtail, Green: 70
[12]; [18]
  Plant response rating, Foxtail, Green: 75
[12]; [19]
  Plant response rating, Foxtail, Green: 45
